Test results as given in the supplement of paper PMC12494721.
Counter-ions that a name gives are not always drawn.

Key:
Conditions in all cases: incubation time: 27 h, anaerobic, 37 °C
[1] = system: Clostridium sporogenes DSM 1664; experiment: growth (OD595) fold change vs plate DMSO controls (fold change (ratio)); higher = more growth
[2] = system: Clostridium sporogenes DSM 1664; experiment: fold change of Tryptamine concentration vs plate DMSO controls (fold change (ratio)); higher = more amine produced
[3] = system: Klebsiella aerogenes DSM 30053; experiment: growth (OD595) fold change vs plate DMSO controls (fold change (ratio)); higher = more growth
[4] = system: Klebsiella aerogenes DSM 30053; experiment: fold change of Histamine concentration vs plate DMSO controls (fold change (ratio)); higher = more amine produced
Protocol: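 Dose-response follow-up: bacteria (E. coli IAI1, K. aerogenes DSM 30053, C. sporogenes DSM 1664, R. gnavus DSM 108212) were grown anaerobically in mGAM at 37 °C for 27 h with compound at 0.6125-20 µM. Amines were measured in the whole culture by targeted LC-MS/MS. Metabolite fold change and OD595 fold change are relative to plate DMSO controls; n=2 biological replicates. OD fold changes are not clipped, so slightly negative values mean no growth.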

[5] = system: Klebsiella aerogenes DSM 30053; experiment: fold change of Putrescine concentration vs plate DMSO controls (fold change (ratio)); higher = more amine produced
[6] = system: Klebsiella aerogenes DSM 30053; experiment: fold change of Cadaverine concentration vs plate DMSO controls (fold change (ratio)); higher = more amine produced
[7] = system: Ruminococcus gnavus DSM 108212; experiment: growth (OD595) fold change vs plate DMSO controls (fold change (ratio)); higher = more growth
[8] = system: Ruminococcus gnavus DSM 108212; experiment: fold change of Tryptamine concentration vs plate DMSO controls (fold change (ratio)); higher = more amine produced
[9] = system: Ruminococcus gnavus DSM 108212; experiment: fold change of 2-Phenylethylamine concentration vs plate DMSO controls (fold change (ratio)); higher = more amine produced

CC(=O)Oc1ccccc1C(=O)Nc1ncc([N+](=O)[O-])s1 [Nitazoxanide]
Conditions | fold change of Tryptamine concentration, [2] | growth, [1]
0.6125 µM | 1.01 | 1.24
1.25 µM | 0.989 | 1.23
2.5 µM | 0.993 | 1.29
5 µM | 0.314 | 0.809
10 µM | 0.0174 | -0.0196
20 µM | 0.0175 | -0.0243

O=[N+]([O-])c1ccc(O)c2ncccc12 [Nitroxoline]
Conditions | fold change of Cadaverine concentration, [6] | fold change of Histamine concentration, [4] | fold change of Putrescine concentration, [5] | growth, [3]
0.6125 µM | 0.967 | 0.949 | 1.04 | 0.817
1.25 µM | 0.966 | 0.911 | 1.03 | 0.815
2.5 µM | 0.935 | 1.16 | 1.02 | 0.882
5 µM | 0.971 | 0.926 | 1.06 | 0.884
10 µM | 0.966 | 1.02 | 0.997 | 0.646
20 µM | 0.977 | 0.852 | 1.01 | 0.584

Cc1ncc([N+](=O)[O-])n1CC(C)O (configuration not stated) [Secnidazole]
Conditions | fold change of Tryptamine concentration, [2] | growth, [1]
0.6125 µM | 0.901 | 0.982
1.25 µM | 0.773 | 1.11
2.5 µM | 0.735 | 1.16
5 µM | 0.035 | 0.156
10 µM | 0.026 | -0.0233
20 µM | 0.0204 | -0.023

CC1(C)S[C@@H]2[C@H](NC(=O)[C@H](N)c3ccccc3)C(=O)N2[C@H]1C(=O)OC1OC(=O)c2ccccc21 (some centres not stated) [Talampicillin hydrochloride]
Conditions | fold change of 2-Phenylethylamine concentration, [9] | fold change of Cadaverine concentration, [6] | fold change of Histamine concentration, [4] | fold change of Putrescine concentration, [5] | fold change of Tryptamine concentration, [8] | growth, [3] | growth, [7]
0.6125 µM | 0.103 | 0.97 | 0.999 | 1.03 | 0.121 | 0.802 | 1.73
1.25 µM | 0.105 | 0.967 | 0.862 | 1.05 | 0.116 | 0.804 | 0.81
2.5 µM | 0.112 | 0.958 | 1.31 | 1.01 | 0.136 | 0.905 | 0.918
5 µM | 0.1 | 1.03 | 1.27 | 1.08 | 0.13 | 1.1 | 1.33
10 µM | 0.138 | 1.09 | 0.959 | 1.11 | 0.174 | 1.1 | 0.729
20 µM | 0.102 | 1.17 | 0.912 | 1.12 | 0.135 | 0.477 | 0.199

C[C@]1(Cn2ccnn2)[C@H](C(=O)O)N2C(=O)C[C@H]2S1(=O)=O [Tazobactam]
Conditions | fold change of Tryptamine concentration, [2] | growth, [1]
0.6125 µM | 1 | 1.01
1.25 µM | 1.01 | 1.05
2.5 µM | 1.11 | 1.01
5 µM | 1.08 | 1.01
10 µM | 0.984 | 0.648
20 µM | 0.921 | 0.353
